Measurements as given in ChEMBL document CHEMBL1132806, “Anti-HIV activity of a series of cosalane amino acid conjugates” (Bioorg Med Chem Lett, 2000).

Assays:
[1] = Cytotoxicity of compound was tested as concentration required for 50% reduction in cellular viability in CEM-SS cells; type: cell-based; conditions: human
CEM-SS = experiment: Tested for inhibition of cytopathic effect of HIV-1RF in CEM-SS cells; type: functional, cell-based; conditions: Homo sapiens
MT4 [2] = experiment: Tested for inhibition of cytopathic effect of HIV-1 IIIB in MT-4 cells; type: functional, cell-based; conditions: Homo sapiens
MT4 [3] = experiment: Tested for inhibition of cytopathic effect of HIV-2ROD in MT-4 cells; type: functional, cell-based; conditions: Homo sapiens
[4] = Cytotoxicity of compound was tested as concentration required for 50% reduction in cellular viability in MT-4 cells; type: cell-based, MT4; conditions: human

| Compound | CC50 [1] | EC50 (CEM-SS) | EC50 (MT4 [2]) | EC50 (MT4 [3]) | CC50 [4] |
| --- | --- | --- | --- | --- | --- |
| CC(C)CCCC(C)[C@H]1CC[C@H]2[C@@H]3CCC4C[C@@H](CCC=C(c5cc(Cl)c(O)c(C(=O)NCC(=O)O)c5)c5cc(Cl)c(O)c(C(=O)NCC(=O)O)c5)CC[C@]4(C)[C@H]3CC[C@]12C (stereo partly specified) | > 200 µM | 3.44 µM | 50.8 µM | > 125 µM | > 125 µM |
| CC(C)CCCC(C)[C@H]1CC[C@H]2[C@@H]3CCC4C[C@@H](CCC=C(c5cc(Cl)c(O)c(C(=O)NCC(=O)OC(C)(C)C)c5)c5cc(Cl)c(O)c(C(=O)NCC(=O)OC(C)(C)C)c5)CC[C@]4(C)[C@H]3CC[C@]12C (stereo partly specified) | > 125 µM |  | > 125 µM | > 125 µM | > 125 µM |
| CC(C)CCCC(C)[C@H]1CC[C@H]2[C@@H]3CCC4C[C@@H](CCC=C(c5cc(Cl)c(O)c(C(=O)NCCC(=O)O)c5)c5cc(Cl)c(O)c(C(=O)NCCC(=O)O)c5)CC[C@]4(C)[C@H]3CC[C@]12C (stereo partly specified) | > 200 µM | 34.7 µM | 75.3 µM | 120 µM | > 125 µM |
| CC(C)CCCC(C)[C@H]1CC[C@H]2[C@@H]3CCC4C[C@@H](CCCC(c5cc(Cl)c(O)c(C(=O)NCC(=O)O)c5)c5cc(Cl)c(O)c(C(=O)NCC(=O)O)c5)CC[C@]4(C)[C@H]3CC[C@]12C (stereo partly specified) | > 200 µM | 4.5 µM | 34.8 µM | > 125 µM | > 125 µM |
| CC(C)CCCC(C)[C@H]1CC[C@H]2[C@@H]3CCC4C[C@@H](CCC=C(c5cc(Cl)c(O)c(C(=O)N[C@@H](CC(C)C)C(=O)O)c5)c5cc(Cl)c(O)c(C(=O)N[C@@H](CC(C)C)C(=O)O)c5)CC[C@]4(C)[C@H]3CC[C@]12C (stereo partly specified) | > 200 µM | 40 µM | 63 µM | > 125 µM | > 125 µM |
| CC(C)CCCC(C)[C@H]1CC[C@H]2[C@@H]3CCC4C[C@@H](CCC=C(c5cc(Cl)c(O)c(C(=O)N[C@@H](CC(=O)O)C(=O)O)c5)c5cc(Cl)c(O)c(C(=O)N[C@@H](CC(=O)O)C(=O)O)c5)CC[C@]4(C)[C@H]3CC[C@]12C (stereo partly specified) | 90 µM | 10.7 µM | 16.6 µM | 122 µM | > 125 µM |
| CC(C)CCCC(C)[C@H]1CC[C@H]2[C@@H]3CCC4C[C@@H](CCC=C(c5cc(Cl)c(O)c(C(=O)N[C@@H](Cc6ccccc6)C(=O)O)c5)c5cc(Cl)c(O)c(C(=O)N[C@@H](Cc6ccccc6)C(=O)O)c5)CC[C@]4(C)[C@H]3CC[C@]12C (stereo partly specified) | > 200 µM | > 200 µM | > 62 µM | > 62 µM | 62 µM |
| CC(C)CCCC(C)[C@H]1CC[C@H]2[C@@H]3CCC4C[C@@H](CCC=C(c5cc(Cl)c(O)c(C(=O)O)c5)c5cc(Cl)c(O)c(C(=O)O)c5)CC[C@]4(C)[C@H]3CC[C@]12C (stereo partly specified) | > 200 µM |  |  |  | > 200 µM |
| CC(C)CCCC(C)[C@H]1CC[C@H]2[C@@H]3CCC4C[C@@H](CCCC(c5cc(Cl)c(O)c(C(=O)N[C@@H](CCC(=O)O)C(=O)O)c5)c5cc(Cl)c(O)c(C(=O)N[C@@H](CCC(=O)O)C(=O)O)c5)CC[C@]4(C)[C@H]3CC[C@]12C (stereo partly specified) | 34 µM | 11.6 µM | 10.6 µM | 75.2 µM | > 125 µM |
| CC(C)CCCC(C)[C@H]1CC[C@H]2[C@@H]3CCC4C[C@@H](CCC=C(c5cc(Cl)c(O)c(C(=O)N[C@@H](CCC(=O)O)C(=O)O)c5)c5cc(Cl)c(O)c(C(=O)N[C@@H](CCC(=O)O)C(=O)O)c5)CC[C@]4(C)[C@H]3CC[C@]12C (stereo partly specified) | 82 µM | 1.1 µM | 9.2 µM | 71.6 µM | > 125 µM |
